Earlier results on two compounds are cited in US20110195110A1, “UREA COMPOUNDS USEFUL IN THE TREATMENT OF CANCER” (priority 2005, published 2011).

The subject of one data set is Bcr-Abl E255K mutant. The note with it: biochemical assay.
In data set [1] the test system is Imatinib-resistant mutations of Bcr-Abl.
In a further data set the test system is Bcr-Abl kinase. To be noted: greater potency than Imatinib.
In another data set the test system is early phase CML. To be noted: patients with early phase CML.

Regarding `Cc1cn(-c2cc(NC(=O)c3ccc(C)c(Nc4nccc(-c5cccnc5)n4)c3)cc(C(F)(F)F)c2)cn1` [AMN-107], in the data set with Bcr-Abl E255K mutant, the “inhibition of the E255K mutant” value is reported as “somewhat weak inhibition”. The “inhibition of Imatinib-resistant mutations” value in data set [1] is “inhibit most Imatinib-resistant mutations, except for T3151”. In addition, the “potency of inhibition of Bcr-Abl kinase activity relative to Imatinib” value in the data set on Bcr-Abl kinase is listed as 20 fold.
As to `Cc1ccc(NC(=O)c2ccc(CN3CCN(C)CC3)cc2)cc1Nc1nccc(-c2cccnc2)n1` [Imatinib], the “response at haematological and cytogenetic levels” value with early phase CML is “greater than 90%”.
